In patent US10266526B2, “Substituted 1,2,3-triazoles as SMYD inhibitors for treating cancer” (EPIZYME, INC., priority 2014, dated 2019):

biological target: SMYD3 (Homo sapiens (Human), UniProt Q9H7B4); experiment: SMYD3 biochemical assay (SMYD3 enzyme assay on MEKK2 protein substrate, 3H-SAM scintillation proximity assay); details: Table 1A; average of n = 1 to n = 50; read-out: SMYD3 Biochem IC50
Summary of the method: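 Detection used scintillation proximity beads to capture ³H-methylated GST-MEKK2 after quench with 100 uM final cold SAM. The reaction was started by SAM/MEKK2 addition after a 30 min RT compound–enzyme preincubation. Enzyme was tag-free full-length human SMYD3 from E. coli, in buffer of 25 mM Tris-Cl pH 8.0, 1 mM TCEP, 0.005% BSG, 0.005% Tween 20.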

SMYD3, sequence (Q9H7B4 whole entry): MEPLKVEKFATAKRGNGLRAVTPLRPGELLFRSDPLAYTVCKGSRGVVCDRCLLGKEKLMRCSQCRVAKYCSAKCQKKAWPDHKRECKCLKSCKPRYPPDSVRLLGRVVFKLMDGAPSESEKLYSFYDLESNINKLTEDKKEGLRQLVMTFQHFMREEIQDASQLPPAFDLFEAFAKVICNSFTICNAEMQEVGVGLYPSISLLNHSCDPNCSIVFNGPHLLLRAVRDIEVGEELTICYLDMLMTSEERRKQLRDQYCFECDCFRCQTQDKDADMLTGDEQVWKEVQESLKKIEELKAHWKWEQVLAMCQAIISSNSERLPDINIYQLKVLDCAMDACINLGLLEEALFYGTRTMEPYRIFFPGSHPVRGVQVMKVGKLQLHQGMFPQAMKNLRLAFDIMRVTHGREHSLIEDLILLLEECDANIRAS

Structure (SMILES) | IC50
CCc1cccc(C(=O)N[C@H]2CCN(S(=O)(=O)CCCN)[C@H](C)C2)c1 (racemic) [compound 573, (±)-trans-N-(1-((3-aminopropyl)sulfonyl)-2-methylpiperidin-4-yl)-3-ethylbenzamide] | > 10 µM
CC(NC(=O)c1nc2ccncc2s1)C1CCN(C(=O)[C@H](C)N)CC1 (stereo partly drawn) [compound 551, N-(1-(1-(L-alanyl)piperidin-4-yl)ethyl)thiazolo[5,4-c]pyridine-2-carboxamide] | > 50 µM
C[C@H]1C[C@H](NC(=O)c2ccccc2)CCN1C(=O)C1CCC(N)CC1 (mixture of isomers) [compound 571, (±)-trans-N-(1-(4-aminocyclohexane-1-carbonyl)-2-methylpiperidin-4-yl)benzamide] | > 10 µM

same assay, conditions: read-out: SMYD3 Biochem IC50

Structure (SMILES) | IC50
CC(NC(=O)c1ccnc(N)c1)C1CCN(C(=O)[C@H](C)N)CC1 (stereo partly drawn) [compound 187, N-(1-(1-(L-alanyl)piperidin-4-yl)ethyl)-2-aminoisonicotinamide] | > 100 µM
Nc1ncncc1C(=O)N[C@H]1CC[C@H](N)CC1 [compound 421, 4-amino-N-((1r,4r)-4-aminocyclohexyl)pyrimidine-5-carboxamide] | > 100 µM
CC(NC(=O)/C=C/c1c[nH]cn1)C1CCN(C(=O)[C@H](C)N)CC1 (stereo partly drawn) [compound 494, (E)-N-(1-(1-(L-alanyl)piperidin-4-yl)ethyl)-3-(1H-imidazol-4-yl)acrylamide] | > 100 µM
N[C@H]1CC[C@H](NC(=O)Cc2cc(F)cc(F)c2)CC1 [compound 362, N-((1r,4r)-4-aminocyclohexyl)-2-(3,5-difluorophenyl)acetamide] | > 100 µM
NCCC(=O)N[C@H]1CC[C@H](NC(=O)Cc2cc(F)cc(F)c2)CC1 [compound 443, 3-amino-N-((1r,4r)-4-(2-(3,5-difluorophenyl)acetamido)cyclohexyl)propanamide] | > 100 µM
NCCC(=O)N[C@H]1CC[C@H](NC(=O)c2nc3ccccc3s2)CC1 [compound 427, N-((1r,4r)-4-(3-aminopropanamido)cyclohexyl)benzo[d]thiazole-2-carboxamide] | > 100 µM
CC(NC(=O)c1nccn1C)C1CCN(C(=O)[C@H](C)N)CC1 (stereo partly drawn) [compound 253, N-(1-(1-(L-alanyl)piperidin-4-yl)ethyl)-1-methyl-1H-imidazole-2-carboxamide] | 64.9 µM
N[C@H]1CC[C@H](NC(=O)[C@H]2CC[C@H](N)CC2)CC1 [compound 304, (1r,4r)-4-amino-N-((1r,4r)-4-aminocyclohexyl)cyclohexane-1-carboxamide] | > 100 µM
NCCC(=O)N[C@H]1CC[C@H](NC(=O)c2cccc3c2CC(=O)N3)CC1 [compound 430, N-((1r,4r)-4-(3-aminopropanamido)cyclohexyl)-2-oxoindoline-4-carboxamide] | > 100 µM
Cn1nc(C(C)(C)C)cc1C(=O)N[C@H]1CC[C@H](N)CC1 [compound 352, N-((1r,4r)-4-aminocyclohexyl)-3-(tert-butyl)-1-methyl-1H-pyrazole-5-carboxamide] | > 100 µM
CC(NC(=O)c1nc2ccccc2s1)C1CCN(C(=O)[C@H](C)N)CC1 (stereo partly drawn) [compound 395, N-(1-(1-(L-alanyl)piperidin-4-yl)ethyl)benzo[d]thiazole-2-carboxamide] | > 100 µM

same assay, conditions: read-out: SMYD3 Biochem IC50 (μM)*

Structure (SMILES) | IC50
NCCC(=O)N[C@H]1CC[C@H](NC(=O)c2ccc(-c3ccccc3)cc2)CC1 [compound 154, N-((1r,4r)-4-(3-aminopropanamido)cyclohexyl)-[1,1′-biphenyl]-4-carboxamide] | 37.3 µM

biological target: SMYD2 (Homo sapiens (Human), UniProt Q9NRG4); experiment: SMYD2 biochemical assay (SMYD2 enzyme assay on peptide substrate, 3H-SAM Flashplate); details: read-out: SMYD2 Biochem IC50; IC50 values are an average of n = 1 to n = 50
Sequence (Q9NRG4 whole entry): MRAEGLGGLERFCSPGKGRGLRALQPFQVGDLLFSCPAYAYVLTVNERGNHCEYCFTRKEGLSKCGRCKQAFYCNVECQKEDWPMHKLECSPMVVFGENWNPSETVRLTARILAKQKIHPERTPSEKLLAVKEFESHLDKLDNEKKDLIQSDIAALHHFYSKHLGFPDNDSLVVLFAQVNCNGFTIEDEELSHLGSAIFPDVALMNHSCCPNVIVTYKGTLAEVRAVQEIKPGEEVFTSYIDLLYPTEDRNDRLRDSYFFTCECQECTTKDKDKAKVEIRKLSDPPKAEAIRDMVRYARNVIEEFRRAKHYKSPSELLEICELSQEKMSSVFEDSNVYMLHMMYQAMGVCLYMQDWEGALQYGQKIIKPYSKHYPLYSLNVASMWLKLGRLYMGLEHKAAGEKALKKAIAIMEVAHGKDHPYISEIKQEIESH

Structure (SMILES) | IC50
NC(=O)c1cccc(CN2CC(NC(=O)c3cn(C4CC4)nn3)C2)c1 [compound 727, N-{1-[(3-carbamoylphenyl)methyl]azetidin-3-yl}-1-cyclopropyl-1H-1,2,3-triazole-4-carboxamide] | 7.3 µM
CN(C)CCCNC(=O)c1cn(C2CC2)nn1 [compound 921, 1-cyclopropyl-N-(3-(dimethylamino)propyl)-1H-1,2,3-triazole-4-carboxamide] | 5.4 µM
O=C(NC1CNC1)c1cn(C2CC2)nn1 [compound 657, N-(azetidin-3-yl)-1-cyclopropyl-1H-1,2,3-triazole-4-carboxamide] | 10.4 µM
O=C(NC1CN(Cc2cnn(CC3CCC3)c2)C1)c1cn(C2CC2)nn1 [compound 1001, N-(1-((1-(cyclobutylmethyl)-1H-pyrazol-4-yl)methyl)azetidin-3-yl)-1-cyclopropyl-1H-1,2,3-triazole-4-carboxamide] | 1.4 µM
O=C(NC1CN(Cc2cnn(Cc3ccccc3)c2)C1)c1cn(C2CC2)cn1 [compound 1022, N-(1-((1-benzyl-1H-pyrazol-4-yl)methyl)azetidin-3-yl)-1-cyclopropyl-1H-imidazole-4-carboxamide] | 0.073 µM
COc1cccc(C(C)N2CC(NC(=O)c3cc(C4CC4)cnn3)C2)c1 (stereo not drawn) [compound 934, 5-cyclopropyl-N-(1-(1-(3-methoxyphenyl)ethyl)azetidin-3-yl)pyridazine-3-carboxamide] | 0.69 µM
CC(c1cccc(OCC(C)(C)O)c1Cl)N1CC(NC(=O)c2cn(C3CC3)nn2)C1 (stereo not drawn) [compound 956, N-(1-(1-(2-chloro-3-(2-hydroxy-2-methylpropoxy)phenyl)ethyl)azetidin-3-yl)-1-cyclopropyl-1H-1,2,3-triazole-4-carboxamide] | 2.6 µM
CC(c1ccc(N2CCOCC2)cc1)N1CC(NC(=O)c2cn(C3CC3)nn2)C1 (stereo not drawn) [compound 728, 1-cyclopropyl-N-(1-{1-[4-(morpholin-4-yl)phenyl]ethyl}azetidin-3-yl)-1H-1,2,3-triazole-4-carboxamide] | 0.755 µM
CC(C)N1CC(NC(=O)c2cn(C3CC3)cn2)C1 [compound 919, 1-cyclopropyl-N-(1-isopropylazetidin-3-yl)-1H-imidazole-4-carboxamide] | 4.6 µM
CC(c1ccc2c(c1)NC(=O)CO2)N1CC(NC(=O)c2cn(C3CC3)nn2)C1 (stereo not drawn) [compound 774, 1-cyclopropyl-N-{1-[1-(3-oxo-3,4-dihydro-2H-1,4-benzoxazin-6-yl)ethyl]azetidin-3-yl}-1H-1,2,3-triazole-4-carboxamide] | 1.62 µM
CN1[C@@H]2CC[C@H]1C[C@H](NC(=O)c1cc(C3CC3)cnn1)C2 [compound 1023, 5-cyclopropyl-N-((1R,3s,5S)-8-methyl-8-azabicyclo[3.2.1]octan-3-yl)pyridazine-3-carboxamide] | 6.3 µM
CC(c1ccc(CNc2ccccc2)cc1)N1CC(NC(=O)c2cn(C3CC3)nn2)C1 (stereo not drawn) [compound 922, 1-cyclopropyl-N-(1-(1-(4-((phenylamino)methyl)phenyl)ethyl)azetidin-3-yl)-1H-1,2,3-triazole-4-carboxamide] | 0.65 µM
CC(c1cccc(OCCO)c1Cl)N1CC(NC(=O)c2cc(C3CC3)ccn2)C1 (stereo not drawn) [compound 964, N-(1-(1-(2-chloro-3-(2-hydroxyemoxy)phenyl)ethyl)azetidin-3-yl)-4-cyclopropylpicolinamide] | 10.5 µM
COc1ccc(COc2ccc(C(C)N3CC(NC(=O)c4cn(C5CC5)nn4)C3)cc2)cc1 (stereo not drawn) [compound 957, 1-cyclopropyl-N-(1-(1-(4-((4-methoxybenzyl)oxy)phenyl)ethyl)azetidin-3-yl)-1H-1,2,3-triazole-4-carboxamide] | 0.16 µM
O=C(NC1CN(Cc2cnn(Cc3cccc(Cl)c3)c2)C1)c1cn(C2CC2)nn1 [compound 987, N-(1-((1-(3-chlorobenzyl)-1H-pyrazol-4-yl)methyl)azetidin-3-yl)-1-cyclopropyl-1H-1,2,3-triazole-4-carboxamide] | 0.024 µM
